Assay [1] deals with lateral root clock (pDR5:LUC). Put plainly: Lateral root clock oscillation amplitude (pDR5:LUC reporter). The class given is in vivo, Arabidopsis thaliana. To be noted: for amplitude of the lateral root clock relative to D15 treatment (rescue of D15 inhibition of lateral root initiation): roots treated with D15 for several days, then 10 μM apocarotenoid added, FIG. 4A.
The subject of a further assay is Arabidopsis thaliana. Put plainly: Root phenotyping: primary root growth, lateral root capacity/branching, lateral root primordia. The class given is in vivo.
The target in a further assay is T1, CCD8 (Arabidopsis thaliana, UniProt Q8VY26).
T1 sequence (Q8VY26 57-570): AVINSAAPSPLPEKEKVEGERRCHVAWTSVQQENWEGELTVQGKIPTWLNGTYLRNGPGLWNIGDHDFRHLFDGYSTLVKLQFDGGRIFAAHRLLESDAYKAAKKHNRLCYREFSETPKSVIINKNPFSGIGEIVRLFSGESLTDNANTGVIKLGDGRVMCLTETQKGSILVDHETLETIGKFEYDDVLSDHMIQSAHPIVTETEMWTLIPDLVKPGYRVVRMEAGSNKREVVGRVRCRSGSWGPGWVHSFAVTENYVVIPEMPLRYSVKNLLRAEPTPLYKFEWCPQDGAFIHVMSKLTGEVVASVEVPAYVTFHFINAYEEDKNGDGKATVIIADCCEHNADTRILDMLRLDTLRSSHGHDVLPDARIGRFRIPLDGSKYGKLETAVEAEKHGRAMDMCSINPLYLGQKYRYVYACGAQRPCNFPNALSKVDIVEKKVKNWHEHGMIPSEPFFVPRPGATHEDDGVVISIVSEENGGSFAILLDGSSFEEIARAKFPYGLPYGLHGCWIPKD
To be noted: stated as known; cited from earlier work.

The subject of the next assay is Arabidopsis roots. Put plainly: Merocyanine aldehyde RBP reporter fluorescence in Arabidopsis roots. Type of assay: in vivo, Arabidopsis thaliana. The following applies: D15 treatment.
For a further assay, the system named is Arabidopsis tissue. Put plainly: Extraction, derivatization and HPLC-MS analysis of apocarotenoid levels in plant tissue upon D15 treatment. Type of assay: in vivo, Arabidopsis thaliana. The following applies: D15 treated plants, whole plant; FIG. 2B.
The mark [2] stands for this setting: co-treatment with 1 μM retinal and 125 μM D15, FIG. 4C.
The mark [3] stands for this setting: co-treatment with 500 nM Apo14 and D15, FIG. 4B.

Regarding `CC1=C(/C=C/C(C)=C/C=C/C(C)=C/C=O)C(C)(C)CCC1` [retinal, apo-16-carotenal], the “amplitude of the lateral root clock relative to D15 treatment (rescue of D15 inhibition of lateral root initiation)” value in assay [1] is “significantly increased”. Moreover, in the assay on Arabidopsis thaliana (setting [2]), the “rescue of D15 inhibition of lateral root development (lateral root branching)” value is recorded as “fully rescue” and the “rescue of D15 inhibition of primary root growth” value is “fully rescue”. In addition, in the assay with Arabidopsis thaliana (retinal alone, absence of D15), the primary root length result is recorded as “did not affect”. In addition, the “number of lateral root primordia” value in the assay on Arabidopsis thaliana (retinal alone, absence of D15, FIG. 4D) is on record as “significantly increase”.

For `CC1=C(/C=C/C(C)=C/C=C/C(C)=C/C=C/C=C(C)/C=C/C=O)C(C)(C)CCC1` [Apo-10-carotenal, apo-10-carotenal], in assay [1], the “amplitude of the lateral root clock relative to D15 treatment (rescue of D15 inhibition of lateral root initiation)” value is recorded as “partially rescue”.

As for “N-(4-fluorobenzyl)-methoxycinnamic hydroxamic acid [D15]”, the CCD8 inhibition result at CCD8 was “can inhibit”. Besides, the “amplitude of oscillations in pDR5:LUC marker line” value in assay [1] (D15-treated plants, FIG. 3) is recorded as “significantly decreased”. Further, the “root growth and lateral root organogenesis” value with Arabidopsis thaliana (D15 treatment) is reported as “defects”. The “merocyanine aldehyde fluorescence in the root meristem” value with Arabidopsis roots is “reduced”. In the assay with Arabidopsis roots (elongation and differentiation zones, FIG. 1E), the “number of merocyanine aldehyde pulses” value is recorded as “significantly reduced”. In the assay on Arabidopsis tissue, the “levels of more hydrophilic apocarotenoids such as beta-cyclocitral and beta-ionone” value is given as “did not affect”; the “levels of retinal as well as the related apocarotenoids” value is given as “reduced”.

For the compound `CC1=C(/C=C/C(C)=C/C=C/C(C)=C/C=C/C=O)C(C)(C)CCC1` [Apo14, apo-14-carotenal], the “amplitude of the lateral root clock relative to D15 treatment (rescue of D15 inhibition of lateral root initiation)” value in assay [1] is on record as “significantly increased”. For the same compound, in the assay with Arabidopsis thaliana (setting [3]), the “rescue of D15 inhibition of lateral root development (lateral root capacity)” value is recorded as “fully rescue” and the “rescue of D15 inhibition of primary root growth” value was “fully rescue”.

On to `CC1=C(/C=C/C(C)=C/C=C/C(C)=C/C=C/C=C(\C)C=O)C(C)(C)CCC1` [apo-12-carotenal], for which, in assay [1], the “amplitude of the lateral root clock relative to D15 treatment (rescue of D15 inhibition of lateral root initiation)” value was “partially rescue”.
